From US20260231992A1, “A PROCESS FOR MYCOTOXIN DETOXIFICATION USING LACTOCOCCUS LACTIS” (priority 2023, published 2026)
Values after ≈ are worked out from the molar mass of the structure shown. Like-named read-outs stand apart in the source and are kept apart here.

Key:
Format in all cases: cell-based
[1] = tested on: Staphylococcus aureus NCIM 2079; test: microbe, parasite or virus in culture; conditions: Staphylococcus aureus NCIM 2079, 24 h at 37° C.
[2] = tested on: Bacillus subtilis NCIM 2010; test: microbe, parasite or virus in culture; conditions: Bacillus subtilis NCIM 2010, 24 h at 37° C.
[3] = tested on: Escherichia coli NCIM 2065; test: microbe, parasite or virus in culture; conditions: Escherichia coli NCIM 2065, 24 h at 37° C.
[4] = tested on: Serratia marcescens NCIM 2919; test: microbe, parasite or virus in culture; conditions: Serratia marcescens NCIM 2919, 24 h at 37° C.
[5] = tested on: Pseudomonas desmolyticum NCIM 2112; test: microbe, parasite or virus in culture; conditions: Pseudomonas desmolyticum NCIM 2112, 24 h at 37° C.
[6] = tested on: Mycobacterium smegmatis NCIM 5138; test: microbe, parasite or virus in culture; conditions: Mycolicibacterium smegmatis, NCIM5138; Mycobacterium smegmatis NCIM 5138, 48 h
[7] = tested on: Candida albicans NCIM 3557; test: Antifungal MIC, RPMI-1640, resazurin; conditions: Candida albicans NCIM 3557, 48 to 72 h at 28° C.
[8] = tested on: Fusarium verticillioides BIONCL4; test: Antifungal MIC, RPMI-1640, resazurin; conditions: Fusarium verticillioides BIONCL4, 48 to 72 h at 28° C.
[9] = tested on: Fusarium graminearum MTCC1893; test: microbe, parasite or virus in culture
[10] = tested on: Aspergillus niger BIONCL 12; test: Antifungal MIC, RPMI-1640, resazurin; conditions: Aspergillus niger BIONCL 12, 48 to 72 h at 28° C.
[11] = tested on: Gram-positive and Gram-negative bacteria; test: Antibacterial MIC, whole panel of tested strains; conditions: span over all tested bacterial strains; read-out: MICs against tested bacterial strains
fungal strains tested = test: microbe, parasite or virus in culture; conditions: Fusarium graminearum, read-out: MIC against the fungal strains tested
[12] = NCIM3557, read-out: MIC (converted)
[13] = Fusarium graminearum, MTCC1893, Fusarium graminearum MTCC1893, 48 to 72 h at 28° C.

CC(C)(C)c1ccc(O)c(C(C)(C)C)c1 [C-1, 2,4-di-tert-butylphenol]
MIC ([1]; NCIM2079, read-out: MIC): 6.25 µg/mL (≈ 30.3 µM)
MIC ([2]; NCIM2010, read-out: MIC): 3.12 µg/mL (≈ 15.1 µM)
MIC ([3]; NCIM2065, read-out: MIC): 3.12 µg/mL (≈ 15.1 µM)
MIC ([4]; NCIM2919, read-out: MIC): 1.56 µg/mL (≈ 7.56 µM)
MIC ([5]; NCIM2112, read-out: MIC): 6.25 µg/mL (≈ 30.3 µM)
MIC [6]: 3.12 µg/mL (≈ 15.1 µM)
MIC [7, 12]: 12.5 µg/mL (≈ 60.6 µM)
MIC ([8]; read-out: MIC (converted)): 6.25 µg/mL (≈ 30.3 µM)
MIC [9, 13]: 6.25 µg/mL (≈ 30.3 µM)
MIC [10]: 12.50 µg/mL (≈ 60.6 µM)
MIC ([10]; BIONCL12, read-out: MIC): 12.5 µg/mL (≈ 60.6 µM)
MIC [11]: 1.56 to 25 µg/mL (≈ 7.56 to 121 µM)

CC1=C(O)C(=O)C(O)CO1 (centres unmarked) [C-2, 3,5-dihydroxy-6-methyl-2,3-dihydro-4H-pyran-4-one]
MIC ([1]; NCIM2079, read-out: MIC): 3.12 µg/mL (≈ 21.6 µM)
MIC ([2]; NCIM2010, read-out: MIC): 6.25 µg/mL (≈ 43.4 µM)
MIC ([3]; NCIM2065, read-out: MIC): 6.25 µg/mL (≈ 43.4 µM)
MIC ([4]; NCIM2919, read-out: MIC): 3.12 µg/mL (≈ 21.6 µM)
MIC ([5]; NCIM2112, read-out: MIC): 6.25 µg/mL (≈ 43.4 µM)
MIC [6]: 12.5 µg/mL (≈ 86.7 µM)
MIC [7, 12]: 3.12 µg/mL (≈ 21.6 µM)
MIC ([8]; read-out: MIC (converted)): 3.12 µg/mL (≈ 21.6 µM)
MIC [9, 13]: 6.25 µg/mL (≈ 43.4 µM)
MIC ([10]; BIONCL12, read-out: MIC): 3.12 µg/mL (≈ 21.6 µM)
MIC [11]: 1.56 to 25 µg/mL (≈ 10.8 to 173 µM)
MIC (fungal strains tested): 3.12 to 6.25 µg/mL (≈ 21.6 to 43.4 µM)

NC(=O)c1cnccn1 [C-3, Pyrazine-2-carboxamide]
MIC ([1]; NCIM2079, read-out: MIC): 25 µg/mL (≈ 203 µM)
MIC [1]: 25.0 µg/mL (≈ 203 µM)
MIC [2]: 25.0 µg/mL (≈ 203 µM)
MIC ([2]; NCIM2010, read-out: MIC): 25 µg/mL (≈ 203 µM)
MIC [3]: 25.0 µg/mL (≈ 203 µM)
MIC ([3]; NCIM2065, read-out: MIC): 25 µg/mL (≈ 203 µM)
MIC ([4]; NCIM2919, read-out: MIC): 25 µg/mL (≈ 203 µM)
MIC [4]: 25.0 µg/mL (≈ 203 µM)
MIC ([5]; NCIM2112, read-out: MIC): 25 µg/mL (≈ 203 µM)
MIC [5]: 25.0 µg/mL (≈ 203 µM)
MIC [6]: 12.5 µg/mL (≈ 102 µM)
MIC [7]: 12.5 µg/mL (≈ 102 µM)
MIC [7, 12]: 12.5 µg/mL (≈ 102 µM)
MIC [8]: 12.5 µg/mL (≈ 102 µM)
MIC ([8]; read-out: MIC (converted)): 12.5 µg/mL (≈ 102 µM)
MIC ([9]; Fusarium graminearum MTCC1893, 48 to 72 h at 28° C.): 50.0 µg/mL (≈ 406 µM)
MIC [9, 13]: 25 µg/mL (≈ 203 µM)
MIC [10]: 25.0 µg/mL (≈ 203 µM)
MIC ([10]; BIONCL12, read-out: MIC): 25 µg/mL (≈ 203 µM)
MIC [11]: 1.56 to 25 µg/mL (≈ 12.7 to 203 µM)
